Here are results for 1 compound from PMC10610188, “Structure–Activity Relationship Studies of Chalcones and Diarylpentanoids with Antitumor Activity: Potency and Selectivity Optimization” (Pharmaceuticals, 2023).

The subject of one assay is HCT116 p53^+/+ cells. As to conditions: SRB assay; ref Moreira et al. [21]; cited from earlier work.
Assay [1] deals with HFF-1 cells. Also noted: method as in Moreira et al. [21]. As to conditions: SRB assay; ref Moreira et al. [21]; cited from earlier work. In general terms: Sulforhodamine B stains cellular protein and so reports cell mass.
The subject of the next assay is human cancer cells. Details: method as in PMID 34170069, doi:10.1016/j.arabjc.2016.04.015. As to conditions: read-out: GI50 against human cancer cells; cited from earlier work.
Assay [2] deals with HCT116 p53^−/− cells. As to conditions: SRB assay; ref Moreira et al. [21]; cited from earlier work.
Assay [3] has as its system HCT116 p53^−/− cells. Nature of the assay: SRB growth inhibition assay in HCT116 p53-/- cells. It is filed as cell-based, human. As to conditions: GI50 of HCT116 p53^−/−/GI50 of HCT116 p53^+/+. The protocol:
(§1) To study the in vitro antitumor potential of chalcone CM-M345 (1) and diarylpentanoid BP-C4 (2) analogues, the sulforhodamine B (SRB) assay was used to evaluate the antiproliferative activity in human colorectal HCT116 cancer cells. To assess their cytotoxicity toward normal cells, the antiproliferative effect of these compounds was also tested in human fibroblasts HFF-1 cells. In order to confirm if inhibition of proliferation was associated with p53 activation in HCT116 p53^+/+ cells, all compounds were also tested in HCT116 cells in which p53 was knocked out (HCT116 p53^−/−) and the selective index was calculated and compared to the compounds CM-M345 (1) and BP-C4 (2), for which p53-dependent antiproliferative activity was previously reported by our research group (Table 1).
(§2) The colorectal adenocarcinoma HCT116 cells (HCT116 p53^+/+) and its p53-null isogenic derivative (HCT116 p53^−/−) were given by Prof. Vogelstein (The Johns Hopkins Kimmel Cancer Center, Baltimore, USA); the normal human fibroblasts HFF-1 cell lines were from ATCC (Rockville, MD, USA). Human cells were cultured in RPMI-1640 with UltraGlutamine (Lonza, VWR, Portugal) with 10% FBS (Gibco, Alfagene, Portugal) at 37 °C with 5% CO2. The SH-SY5Y cells were cultured in DMEM/F-12 (Lonza) and 10% FBS and 2mM L-glutamine (Gibco). The cells were incubated at 37 °C in a humidified atmosphere of 5% CO2. Mycoplasma was routinely checked using the MycoAlert™ PLUS kit (Lonza). […]

Assay [4] concerns HFF-1 cells. Nature of the assay: SRB growth inhibition assay in normal fibroblasts HFF-1. It is filed as cell-based, human. As to conditions: GI50 of HFF-1/GI50 of HCT116 p53^+/+. The protocol:
as §1, §2

Regarding `O=C1/C(=C/c2ccc(Cl)cc2)COC/C1=C\c1ccc(Cl)cc1` [BP-C4 (2), 3,5-bis((E)-4-chlorobenzylidene)tetrahydro-4H-pyran-4-one], the concentration for 50% growth inhibition (GI50) (commonly the concentration giving 50% growth inhibition) is 6.25 ± 1.18 µM in the assay with HCT116 p53^+/+ cells, 36.2 ± 5.54 µM with HFF-1 cells [1], 6.25 µM in the assay with human cancer cells and 10.1 ± 0.47 µM in the assay with HCT116 p53^−/− cells [2]. Moreover, in the assay on HCT116 p53^−/− cells [3], the “SI1: Selective index 1” value is 1.62. For the same compound, the “SI2: Selective index 2” value in the assay on HFF-1 cells [4] worked out at 5.79.
